Source: article PMC12337281, “mTORC1-selective inhibitors rescue cellular phenotypes in TSC iPSC-derived neurons” (Frontiers in Neuroscience, 2025)

Test system: TSC2–/– iPSC-derived neurons
Assay: MEA weighted mean firing rate in TSC2–/– iPSC-derived neurons
Format: cell-based, human
From the text: TSC2^–/– iPSC-derived cortical neurons were differentiated in two to three replicate batches, defined as independent plating of starting material iPSCs and use of reagents to differentiate iPSCs into neurons. The NGN2-induced cortical neurons were differentiated following previously published methods ([Winden et al., 2019]; [Zhang et al., 2013]) that are also described here. To establish a line of iPSCs expressing the NGN2 vector, on differentiation day - 2, iPSCs were dissociated with Accutase (Innovative Cell Technologies #AT104) and plated as single cells at 90,000 cells/cm^2 in mTeSR-1 media supplemented with 10 μM ROCK inhibitor (Y-27631, Cayman Chemical #10005583), on Geltrex-coated 12-well plates. While iPSCs were routinely cultured with StemFlex (as noted above), the NGN2 differentiation was optimized with mTeSR-1 media, so the switch was made to this media prior to initiating differentiation. One day after re-plating as single cells, on differentiation day - 1, iPSCs were transduced with lentiviral vectors expressing NGN2 and rtTA and 8 μg/ml polybrene (Sigma-Aldrich #TR-1003-G). The lentiviral particles were produced and concentrated at the Viral Core at Boston Children’s Hospital and were added to the culture at an MOI of 5 for each vector. Both plasmids are available at Addgene with the following IDs: 52047 and 20342. […]

IC50 (Homo sapiens, Neuron, day 23, after 2 weeks treatment until day 21, replicate batch #1): 0.015 nM
Structure (SMILES): CO[C@H]1C[C@@H]2CC[C@@H](C)[C@@](O)(O2)C(=O)C(=O)N2CCCC[C@H]2C(=O)O[C@H]([C@H](C)C[C@@H]2CC[C@@H](O)[C@H](OC)C2)CC(=O)[C@H](C)/C=C(\C)[C@@H](O)[C@@H](OC)C(=O)[C@H](C)C[C@H](C)/C=C/C=C/C=C/1C [Rapamycin, rapamycin]
Dose at which WMFR was lowered (during the 2 weeks treatment window, vs DMSO): > 0.1 nM
